The values that follow come from patent US20260273107A1, “COMPOUND PHARMACEUTICAL PREPARATION CONTAINING OIL COMPONENT COMPRISING POLYOXYETHYLENE STRUCTURE” (CHUGAI SEIYAKU KABUSHIKI KAISHA, priority 2022, published 2026).

Values after ≈ are worked out from the molar mass of the structure shown. Read-outs that look alike come from different tables or passages of the source. Numbered stars: 1 amine (or outer) side, 2 acyl side, 3 side chain; on linkers, the order of the positions; unused ones are H or OH. Bridge positions count the residues as written; N and C are the ends. Square brackets hold non-standard residues; d marks the D form. Peptide text beside a SMILES is read from it. * marks the point of attachment. hPhe(3,5-F2-4-CF3) = N[C@@H](CCc1cc(F)c(C(F)(F)F)c(F)c1)C(=O)O; hPhe(3-Cl-4-CF3) = N[C@@H](CCc1ccc(C(F)(F)F)c(Cl)c1)C(=O)O; X1 = CN(C(CC(=O)[*:2])C(=O)C1CCCCC1)[*:1]; NMeGly(cPent) = CN[C@H](C(=O)O)C1CCCC1; NMeCha = CN[C@@H](CC1CCCCC1)C(=O)O; Hyp = O=C(O)[C@@H]1C[C@@H](O)CN1; NMeChg = CN[C@H](C(=O)O)C1CCCCC1; NMeF = CN[C@@H](Cc1ccccc1)C(=O)O; NMeI = CC[C@H](C)[C@H](NC)C(=O)O; NMeD = CN[C@@H](CC(=O)O)C(=O)O; NMeL = CN[C@@H](CC(C)C)C(=O)O; NMeV = CN[C@H](C(=O)O)C(C)C; NMeA = CN[C@@H](C)C(=O)O; Piperidide = C1CCN(*)CC1; Ac5c = NC1(C(=O)O)CCCC1; Aze = O=C(O)[C@@H]1CCN1; Sar = CNCC(=O)O; tBu = CC(C)(C)*

Data set [1] is described as follows: Solubility of cyclic peptide compound in 50 mM phosphate buffer solution (pH 6.5), 37° C. (Example 3-3). The format is physicochemical. The following applies: shaking 22 to 24 hours, read-out: solubility in 50 mM phosphate buffer solution (PPB). The method, then:
Evaluation of the solubility of the cyclic peptide compound was performed. To lyophilized powder of the compound, a 50 mM phosphate buffer solution (PPB: Phosphate buffer, pH 6.5) was added, and after shaking (at 37° C., 1800 rpm, for 22 to 24 hours), the mixed solution was filtered through a filter, and the compound concentration of the filtrate was measured by LC/MS/MS. Solubility was calculated from the measured compound concentration. The solubilities of the compounds 3, 4, 6, 7, and 8 were 11 μg/mL, 1 μg/mL, 1 μg/mL, 15 μg/mL, and 5 μg/mL, respectively.

Data set [2] can be described thus: Solubility in aqueous solution containing 0.3% or 1% Cremophor EL (Example 3-3). The format is physicochemical. The following applies: 25° C., 22 to 24 hours. As to the method:
Evaluation of the solubility of the cyclic peptide compound in the presence of a surfactant was performed. To lyophilized powder of the compound, an aqueous solution containing 0.3% or 1% Cremophor EL (CreEL) was added, and after shaking (at 25° C., 1000 rpm, for 22 to 24 hours), the mixed solution was filtered through a filter, and the compound concentration of the filtrate was measured by LC/UV. Solubility (μg/mL) was calculated from the measured compound concentration.

The nature of data set [3]: Evaluation of Caco-2 membrane permeability. The following applies: human, Apical FaSSIF/HBSS pH 6.0 to Basal HBSS 4% BSA pH 7.4, 180 minutes, after 18 to 24 hours preincubation, read-out: Caco2 (Papp). The format is in vitro ADME. The method, then: The permeability coefficient (Caco-2 Papp (cm/sec)) is calculated using a numerical expression 1.
[formula] • where dQ/dt is the permeation rate of the drug (amount of drug appearing on the Basal side per unit time), S is the total cell surface area, and C1 (0) is the concentration of drug added on the Apical side.
Caco-2 cells were cultured on 96-well Transwell for 3 weeks, then DMEM, FaSSIF (1% DMSO), and the compound were added to the Apical side, DMEM was added to the Basal side, and the cells were preincubated under 5% CO2 at 37° C. with shaking at 80 rpm for 18 to 24 hours. After the preincubation, the preincubation solutions on the Apical side and Basal side were sucked off and washed, a FaSSIF/HBSS buffer solution (1% DMSO) (pH 6.0) containing the compound was added to the Apical side, a HBSS buffer solution (4% BSA) (pH 7.4) was added to the Basal side, and measurement of membrane permeability was started. Each well was shaken under 5% CO2 at 37° C. and 80 rpm, and at 180 minutes after the start of shaking, a sample on the Basal side was collected, and the permeation amount was measured by LC/MS. From the permeation amount, the membrane permeability coefficient (Papp) was calculated. Note that the description “Caco-2 (cm/sec)” in the column in the table herein is used synonymously with “Papp (cm/sec)”.

Data set [4] in a line: Solubility in the presence of a surfactant (Example 2-1). In kind it is physicochemical. The following applies: room temperature, stirred 20 hours. As to the method:
(§1) To lyophilized powder of the compound, a 50 mM phosphate buffer solution (PPB: Phosphate buffer, pH 6.5) was added, and after shaking (at room temperature, 1800 rpm, for 24 hours), the mixed solution was filtered through a filter, and the compound concentration of the filtrate was measured by LC/MS/MS. […] To the compound powder, Cremophor EL (CreEL) (manufactured by Sigma-Aldrich Co., Ltd., “Kolliphor EL”, generic name: polyoxyethylene castor oil, average number of moles of ethylene oxide added 35), Vitamin E TPGS (manufactured by Sigma-Aldrich Co., Ltd.), an aqueous solution containing 1% TW80 (manufactured by Nacalai Tesque, Inc.), an aqueous solution containing 1.5% Ploxamer 188 (manufactured by BASF SE), or an aqueous solution containing 0.5% Triton X-100 was added, the mixed solution was stirred (at room temperature, for 20 hours) with a stirrer, and then filtered through a filter, and the compound concentration of the filtrate was measured by LC/UV. Solubility (μg/mL) was calculated from the measured compound concentration. […] From the above, CreEL and Vitamin E TPGS were selected as substrates that improve solubility independently of compounds, and evaluation of oral absorbability was performed.

Data set [5] in a line: In vitro solubility evaluation in 50 mM phosphate buffer solution (PPB, pH 6.5), room temperature (Example 2-1). In kind it is physicochemical. The following applies: 50 mM phosphate buffer pH 6.5, room temperature, shaking 24 hours, no surfactant; read-out: solubilities, PPb. The method, then: as §1
Where [6] appears, read: 0.3% Cremophor EL aqueous solution, read-out: solubility, 0.3% Cremophor EL.
Where [7] appears, read: 1% Cremophor EL aqueous solution, read-out: solubility, 1% Cremophor EL.
Setting [8] is: 0.5% Triton X-100 aqueous solution, read-out: solubilities, TritonX-100 (0.5% aqueous solution).
The mark [9] stands for this setting: 1% Cremophor EL aqueous solution, read-out: solubilities, CreEL (1% aqueous solution).
Setting [10] is: 1% TW80 aqueous solution, read-out: solubilities, TW80 (1% aqueous solution).
Setting [11] is: 1% Vitamin E TPGS aqueous solution, read-out: solubilities, VitaminE TPGS (1% aqueous solution).
Setting [12] is: 1.5% Poloxamer 188 aqueous solution, read-out: solubilities, Poloxamer 188 (1.5% aqueous solution).

Regarding `CC(C)C[C@@H]1NC(=O)[C@H](Cc2ccccc2)N(C)C(=O)[C@@H](C(C)C)NC(=O)C[C@@H](C(=O)N2CCCCC2)NC(=O)[C@H](C(C)C)N(C)C(=O)[C@H](Cc2ccccc2)N(C)C(=O)[C@H](COC(C)(C)C)NC(=O)[C@H](CC(C)C)N(C)C(=O)CN(C)C(=O)[C@H]([C@@H](C)O)NC(=O)[C@H](CC(C)C)N(C)C1=O` [Compound 3] ([dV][NMeF]L[NMeL]T[Sar][NMeL]S(tBu)[NMeF][NMeV]D-Piperidide; lactam N-11), the solubility was 11 µg/mL (≈ 7.86 µM) in data set [1], 101 µg/mL (≈ 72.2 µM) in data set [2] (setting [6]) and 395 µg/mL (≈ 282 µM) in data set [2] (setting [7]). For the same compound, the Papp A→B at 180 min in data set [3] amounted to 4.07 ×10⁻⁶ cm/s.
For the compound `CC[C@H](C)[C@@H]1NC(=O)[C@H](CC(C)C)N(C)C(=O)C[C@@H](C(=O)N2CCOCC2)N(C)C(=O)[C@H](C2CCCC2)N(C)C(=O)C2(CCCC2)NC(=O)[C@@H]2CCCN2C(=O)[C@H](CCc2ccc(C(F)(F)F)c(Cl)c2)NC(=O)CN(C)C(=O)[C@H](Cc2ccc(C(F)(F)F)cc2)N2CCCCC[C@@H](C2=O)N(C)C(=O)CN(C)C1=O` [Compound 9], the solubility in data set [2] (setting [6]) is 450 µg/mL (≈ 291 µM); in data set [2] (setting [7]), 1510 µg/mL (≈ 978 µM). For the same compound, the Papp A→B at 180 min in data set [3] stood at 0.14 ×10⁻⁶ cm/s.
As to `CC[C@H](C)[C@H]1C(=O)N[C@@H](COC(C)(C)C)C(=O)N(C)[C@@H](Cc2ccccc2)C(=O)N(C)[C@@H](C(C)C)C(=O)N[C@H](C(=O)N2CCCCC2)CC(=O)N(C)[C@@H](C)C(=O)N(C)[C@@H](Cc2ccccc2)C(=O)N[C@@H](CC(C)C)C(=O)N(C)[C@@H](CC(C)C)C(=O)N[C@@H]([C@@H](C)O)C(=O)N(C)CC(=O)N1C` [Compound 2] ([NMeA][NMeF]L[NMeL]T[Sar][NMeI]S(tBu)[NMeF][NMeV]D-Piperidide; lactam N-11), the solubility at 20 h in data set [4] (setting [8]) worked out at 498 µg/mL; in data set [4] (setting [9]) it was 1050 µg/mL; in data set [4] (setting [10]) it was 707 µg/mL; in data set [4] (setting [11]), 1950 µg/mL; in data set [4] (setting [12]), 31 µg/mL. The solubility at 24 h in data set [5] was 11 µg/mL (≈ 7.94 µM). In addition, the Papp A→B at 180 min in data set [3] was 5.99 ×10⁻⁶ cm/s.
Take `CCO[C@@H]1C[C@H]2C(=O)NC3(CCCC3)C(=O)N(C)[C@@H](C3CCCC3)C(=O)N(C)[C@H](C(=O)N(C)C)CC(=O)N(C)[C@@H](CC(C)C)C(=O)N[C@@H]([C@@H](C)CC)C(=O)N(C)[C@@H](C)C(=O)N3CC[C@H]3C(=O)N(C)[C@@H](CC3CCCCC3)C(=O)N(C)CC(=O)N[C@@H](CCc3cc(F)c(C(F)(F)F)c(F)c3)C(=O)N2C1` [Compound 8] ([NMeL]I[NMeA][Aze][NMeCha][Sar][hPhe(3,5-F2-4-CF3)][Hyp](Et)[Ac5c][NMeGly(cPent)][NMeD]-NMe2; lactam N-11): the solubility in data set [1] is 5 µg/mL (≈ 3.43 µM); in data set [2] (setting [6]), 356 µg/mL (≈ 244 µM); in data set [2] (setting [7]), 1340 µg/mL (≈ 916 µM). Also, the Papp A→B at 180 min in data set [3] turned out to be 2.39 ×10⁻⁶ cm/s.
As to `CC[C@H](C)[C@@H]1NC(=O)[C@H](CC(C)C)N(C)C(=O)CC(C(=O)C2CCCCC2)N(C)C(=O)[C@H](C2CCCCC2)N(C)C(=O)C2(CCCC2)NC(=O)[C@@H]2CCCN2C(=O)[C@H](CCc2ccc(C(F)(F)F)c(Cl)c2)NC(=O)CN(C)C(=O)[C@H](CC2CCCCC2)N(C)C(=O)CN(C)C(=O)CN(C)C1=O` (stereo partly shown) [Compound 1] (cyclo([Ac5c][NMeChg][X1][NMeL]I[Sar][Sar][NMeCha][Sar][hPhe(3-Cl-4-CF3)]P)), the solubility at 20 h is 743 µg/mL in data set [4] (setting [8]); 3380 µg/mL in data set [4] (setting [9]); 1270 µg/mL in data set [4] (setting [10]); 3100 µg/mL in data set [4] (setting [11]); < 13 µg/mL in data set [4] (setting [12]). Further, in data set [5], the solubility at 24 h worked out at 1 µg/mL (≈ 0.694 µM). Moreover, the Papp A→B at 180 min in data set [3] was determined as 0.71 ×10⁻⁶ cm/s.
